Measured values reported in ChEMBL document CHEMBL1129923, “Antiallergic activity of some novel oligopeptides related to immunoglobulin E” (1997).
Square brackets hold non-standard residues; d marks the D form. Peptide text beside a SMILES is read from it. NMeA = CN[C@@H](C)C(=O)O

Assays:
Assay type in all cases: functional
Rattus norvegicus [1] = assay: Tested for antiallergic activity by studying the protection of PCA (passive cutaneous anaphylaxis) after ip administration at a dose of 5.0 mg/kg in rats for four determinations; settings: route intraperitoneal
Rattus norvegicus [2] = assay: Tested for antiallergic activity by studying the protection of PCA (passive cutaneous anaphylaxis) after ip administration at a dose of 1.0 mg/kg in rats for four determinations; settings: route intraperitoneal
Rattus norvegicus [3] = assay: Tested for antiallergic activity by studying mast cell stabilising activity after ip administration at a dose of 1.0 mg/kg for five days in rats for four determinations; settings: route intraperitoneal
Rattus norvegicus [4] = assay: Tested for antiallergic activity by studying mast cell stabilising activity after ip administration at a dose of 2.5 mg/kg for five days in rats for four determinations; settings: route intraperitoneal
Rattus norvegicus [5] = assay: Tested for antiallergic activity by studying mast cell stabilising activity after ip administration at a dose of 0.5 mg/kg for five days in rats for four determinations; settings: route intraperitoneal
Rattus norvegicus [6] = assay: Tested for antiallergic activity by studying the protection of PCA (passive cutaneous anaphylaxis) after ip administration at a dose of 2.5 mg/kg in rats for four determinations; settings: route intraperitoneal
Rattus norvegicus [7] = assay: Tested for antiallergic activity by studying the protection of PCA (passive cutaneous anaphylaxis) after ip administration at a dose of 10.0 mg/kg in rats for four determinations; settings: route intraperitoneal
Rattus norvegicus [8] = assay: Tested for antiallergic activity by studying mast cell stabilising activity after ip administration at a dose of 0.1 mg/kg for five days in rats for four determinations; settings: route intraperitoneal
Rattus norvegicus [9] = assay: Tested for antiallergic activity by studying the protection of PCA (passive cutaneous anaphylaxis) after ip administration at a dose of 1 mg/kg in rats for four determinations; settings: route intraperitoneal
Rattus norvegicus [10] = assay: Tested for antiallergic activity by studying mast cell stabilising activity after ip administration at a dose of 0.2 mg/kg for five days in rats for four determinations; settings: route intraperitoneal
Rattus norvegicus [11] = assay: Tested for antiallergic activity by studying the protection of PCA (passive cutaneous anaphylaxis) after ip administration at a dose of 7.5 mg/kg in rats for four determinations; settings: route intraperitoneal
Rattus norvegicus [12] = assay: Tested for antiallergic activity by studying mast cell stabilising activity after ip administration at a dose of 0.25 mg/kg in rats for four determinations; settings: route intraperitoneal
Rattus norvegicus [13] = assay: Effective dose required for inhibition of PCA at a compound concentration of 7.5 mg/kg po
Rattus norvegicus [14] = assay: Effective dose required for protection of mast cells using mast cell stabilising assay at a compound concentration of 7.5 mg/kg po
Rattus norvegicus [15] = assay: Tested for antiallergic activity by studying the protection of PCA (passive cutaneous anaphylaxis) after ip administration at a dose of 0.5 mg/kg in rats for four determinations; settings: route intraperitoneal
Rattus norvegicus [16] = assay: Tested for antiallergic activity by studying the protection of PCA (passive cutaneous anaphylaxis) after ip administration at a dose of 50 mg/kg in rats for four determinations; settings: route intraperitoneal
Rattus norvegicus [17] = assay: Tested for antiallergic activity by studying mast cell stabilising activity after ip administration at a dose of 50 mg/kg in rats for four determinations; settings: route intraperitoneal

H-AGSDGK-OH
Protection (Rattus norvegicus [1]): 77% | Protection (Rattus norvegicus [2]): 57% | Protection (Rattus norvegicus [3]): 80% | Protection (Rattus norvegicus [4]): 87% | Protection (Rattus norvegicus [5]): 70% | Protection (Rattus norvegicus [6]): 69% | Protection (Rattus norvegicus [7]): 90% | Protection (Rattus norvegicus [8]): 39% | Protection (Rattus norvegicus [9]): 78% | Protection (Rattus norvegicus [10]): 50% | Protection (Rattus norvegicus [11]): 88% | Protection (Rattus norvegicus [12]): 78% | ED50 (Rattus norvegicus [13]): 0.6 mg/kg | ED50 (Rattus norvegicus [14]): 1 mg/kg | Protection (Rattus norvegicus [15]): 47%

H-AESDGK-OH
Protection (Rattus norvegicus [9]): 45% | Protection (Rattus norvegicus [12]): 63%

O=C([O-])c1cc(=O)c2c(OCC(O)COc3cccc4oc(C(=O)[O-])cc(=O)c34)cccc2o1.[Na+].[Na+] [CROMOLYN SODIUM]
Protection (Rattus norvegicus [16]): 77% | Protection (Rattus norvegicus [17]): 84%

H-ADSDGK-NH2
Protection (Rattus norvegicus [9]): 68% | Protection (Rattus norvegicus [12]): 61%

CN[C@@H](C)C(=O)N[C@@H](CC(=O)O)C(=O)N[C@@H](CO)C(=O)N[C@@H](CC(=O)O)C(=O)NCC(=O)N[C@@H](CCCCN)C(=O)O (H-[NMeA]DSDGK-OH)
Protection (Rattus norvegicus [9]): 67% | Protection (Rattus norvegicus [12]): 60%

C[C@H](N)C(=O)N[C@@H](CC(=O)O)C(=O)N[C@@H](CO)C(=O)N[C@@H](CC(=O)O)C(=O)NCC(=O)N[C@@H](CCCCN)C(=O)O
Protection (Rattus norvegicus [1]): 75% | Protection (Rattus norvegicus [2]): 52% | Protection (Rattus norvegicus [3]): 72% | Protection (Rattus norvegicus [4]): 79% | Protection (Rattus norvegicus [5]): 47% | Protection (Rattus norvegicus [6]): 67% | Protection (Rattus norvegicus [7]): 89% | Protection (Rattus norvegicus [8]): 34% | Protection (Rattus norvegicus [9]): 75% | Protection (Rattus norvegicus [10]): 41% | Protection (Rattus norvegicus [11]): 86% | Protection (Rattus norvegicus [12]): 64% | ED50 (Rattus norvegicus [13]): 0.9 mg/kg | ED50 (Rattus norvegicus [14]): 3 mg/kg | Protection (Rattus norvegicus [15]): 44%

C[C@@H](N)C(=O)N[C@@H](CC(=O)O)C(=O)N[C@@H](CO)C(=O)N[C@@H](CC(=O)O)C(=O)NCC(=O)N[C@@H](CCCCN)C(=O)O
Protection (Rattus norvegicus [9]): 64% | Protection (Rattus norvegicus [12]): 61%
